Experimental findings from DBAASP are described below.

Structures are written as SMILES. In brackets after ≈: the same amount, converted by molar mass.

Test systems include Klebsiella pneumoniae; Pseudomonas aeruginosa; Salmonella typhimurium; Escherichia coli UB1005.
Holding throughout (assay): ≥ marks a high value that may be exact or a test limit, other limits are often not marked, values filed in µg/mL are converted to µM
Experiment [1] relates to Staphylococcus aureus NCTC 10788.
For experiment [2], the system named is Escherichia coli DH5alpha.
Experiment [3] concerns Micrococcus luteus ATCC 9341.
Experiment [4] has as its system Escherichia coli KCTC 1682.
Experiment [5] relates to Bacillus subtilis KCTC 3068.
In experiment [6] the test system is Staphylococcus aureus KCTC 1621.
The subject of experiment [7] is Pseudomonas aeruginosa KCTC 1637.
The test system of experiment [8] is Staphylococcus epidermidis KCTC 1917.
Experiment [9] deals with Salmonella typhimurium KCTC 1926.
Experiment [10] concerns Escherichia coli ATCC 25922.
Experiment [11] has as its system Staphylococcus aureus ATCC 33591.
Experiment [12] has as its system Salmonella enterica subsp. enterica serovar Typhimurium C77-31.
The test system of experiment [13] is Staphylococcus epidermidis ATCC 12228.
Experiment [14] relates to Enterococcus faecalis ATCC 29212.

As to `CC(C)C[C@H](NC(=O)[C@H](CC(C)C)NC(=O)CNC(=O)[C@H](C)NC(=O)[C@H](CC(C)C)NC(=O)[C@H](CC(C)C)NC(=O)CNC(=O)[C@@H]1CCCN1C(=O)[C@H](CC(C)C)NC(=O)[C@@H](N)Cc1ccccc1)C(N)=O` [FLPGLLAGLL], the MIC in experiment [1] is no less than 60 µM.

Regarding `CC[C@H](C)[C@H](N)C(=O)N[C@@H](CC(C)C)C(=O)N[C@@H](C)C(=O)N[C@@H](Cc1c[nH]c2ccccc12)C(=O)N[C@@H](CCCCN)C(=O)N[C@@H](Cc1c[nH]c2ccccc12)C(=O)N[C@@H](C)C(=O)N[C@@H](Cc1c[nH]c2ccccc12)C(=O)N[C@@H](Cc1c[nH]c2ccccc12)C(=O)N1CCC[C@H]1C(=O)N[C@@H](Cc1c[nH]c2ccccc12)C(=O)N[C@@H](CCCN=C(N)N)C(=O)N[C@@H](CCCN=C(N)N)C(N)=O` [ILAWKWAWWPWRR], the MIC was 25 µM (≈ 46.4 µg/mL) in the experiment on Klebsiella pneumoniae, 15 µM (≈ 27.8 µg/mL) in experiment [2], 100 µM (≈ 185 µg/mL) against Pseudomonas aeruginosa and 25 µM (≈ 46.4 µg/mL) against Salmonella typhimurium.

On to `CC[C@H](C)[C@H](N)C(=O)N[C@@H](CC(C)C)C(=O)N[C@@H](C)C(=O)N[C@@H](Cc1c[nH]c2ccccc12)C(=O)N[C@@H](CCCCN)C(=O)N[C@@H](Cc1c[nH]c2ccccc12)C(=O)N1CCC[C@H]1C(=O)N[C@@H](Cc1c[nH]c2ccccc12)C(=O)N[C@@H](Cc1c[nH]c2ccccc12)C(=O)N[C@@H](C)C(=O)N[C@@H](Cc1c[nH]c2ccccc12)C(=O)N[C@@H](CCCN=C(N)N)C(=O)N[C@@H](CCCN=C(N)N)C(N)=O` [ILAWKWPWWAWRR], for which the MIC is 50 µM (≈ 92.7 µg/mL) in the experiment on Klebsiella pneumoniae, 25 µM (≈ 46.4 µg/mL) in [2], 100 µM (≈ 185 µg/mL) in the experiment on Pseudomonas aeruginosa and 25 µM (≈ 46.4 µg/mL) in the experiment with Salmonella typhimurium.

As for `CC[C@H](C)[C@H](N)C(=O)N[C@@H](CC(C)C)C(=O)N1CCC[C@H]1C(=O)N[C@H](C(=O)N[C@@H](CCCCN)C(=O)N[C@H](C(=O)N1CCC[C@H]1C(=O)N[C@H](C(=O)N[C@H](C(=O)N1CCC[C@H]1C(=O)N[C@H](C(=O)N[C@@H](CCCN=C(N)N)C(=O)N[C@@H](CCCN=C(N)N)C(N)=O)C(C)C)C(C)C)C(C)C)C(C)C)C(C)C` [ILPVKVPVVPVRR], the MIC in [3] is no less than 100 µM.

`CC[C@H](C)[C@H](N)C(=O)N[C@@H](CC(C)C)C(=O)N1CCC[C@H]1C(=O)N[C@@H](Cc1c[nH]c2ccccc12)C(=O)N[C@@H](C)C(=O)N[C@@H](Cc1c[nH]c2ccccc12)C(=O)N1CCC[C@H]1C(=O)N[C@@H](Cc1c[nH]c2ccccc12)C(=O)N[C@@H](Cc1c[nH]c2ccccc12)C(=O)N1CCC[C@H]1C(=O)N[C@@H](Cc1c[nH]c2ccccc12)C(=O)N[C@@H](CCCN=C(N)N)C(=O)N[C@@H](CCCN=C(N)N)C(N)=O` [ILPWAWPWWPWRR]: the MIC in experiment [3] was 0.8 µM (≈ 1.48 µg/mL).

As to `CC[C@H](C)[C@H](N)C(=O)N[C@@H](CC(C)C)C(=O)N1CCC[C@H]1C(=O)N[C@@H](Cc1c[nH]c2ccccc12)C(=O)N[C@@H](CCCCN)C(=O)N[C@@H](CCCCN)C(=O)N1CCC[C@H]1C(=O)N[C@@H](CCCCN)C(=O)N[C@@H](CCCCN)C(=O)N1CCC[C@H]1C(=O)N[C@@H](Cc1c[nH]c2ccccc12)C(=O)N[C@@H](CCCN=C(N)N)C(=O)N[C@@H](CCCN=C(N)N)C(N)=O` [ILPWKKPKKPWRR], the minimal inhibitory concentration (MIC) was 2.88 µM (≈ 5 µg/mL) in [4]; 5.77 µM (≈ 9.99 µg/mL) in experiment [5]; 5.77 µM (≈ 9.99 µg/mL) in experiment [6]; 11.5 µM (≈ 20 µg/mL) in experiment [7]; 2.88 µM (≈ 5 µg/mL) in [8]; 5.77 µM (≈ 9.99 µg/mL) in experiment [9].

Consider `CC[C@H](C)[C@H](N)C(=O)N[C@@H](CC(C)C)C(=O)N1CCC[C@H]1C(=O)N[C@@H](Cc1c[nH]c2ccccc12)C(=O)N[C@@H](CCCN=C(N)N)C(=O)N[C@@H](Cc1c[nH]c2ccccc12)C(=O)N1CCC[C@H]1C(=O)N[C@@H](Cc1c[nH]c2ccccc12)C(=O)N[C@@H](Cc1c[nH]c2ccccc12)C(=O)N1CCC[C@H]1C(=O)N[C@@H](Cc1c[nH]c2ccccc12)C(=O)N[C@@H](CCCN=C(N)N)C(=O)N[C@@H](CCCN=C(N)N)C(N)=O` [ILPWRWPWWPWRR], for which the MIC in experiment [3] stood at 0.4 µM (≈ 0.774 µg/mL).

For `CC[C@H](C)[C@H](NC(=O)[C@@H](N)CCCCN)C(=O)N[C@@H](Cc1c[nH]c2ccccc12)C(=O)N[C@@H](Cc1ccccc1)C(=O)N[C@@H](CCC(N)=O)C(=O)N[C@@H](CC(N)=O)C(=O)N[C@@H](CCCN=C(N)N)C(=O)N[C@@H](CCCN=C(N)N)C(=O)N[C@@H](CCSC)C(=O)N[C@@H](CCCCN)C(=O)N[C@@H](Cc1c[nH]c2ccccc12)C(=O)N[C@@H](CCCCN)C(=O)N[C@@H](CCCCN)C(N)=O` [KIWFQNRRMKWKK], the minimum inhibitory concentration (MIC) is 128 µM (≈ 237 µg/mL) in experiment [10] and no less than 256 µM in experiment [11].

`C[C@@H](O)[C@H](NC(=O)[C@H](CCCCN)NC(=O)[C@H](Cc1c[nH]c2ccccc12)NC(=O)[C@H](Cc1c[nH]c2ccccc12)NC(=O)[C@@H](NC(=O)[C@H](CCCCN)NC(=O)[C@@H](N)CCCCN)[C@@H](C)O)C(=O)N[C@@H](Cc1c[nH]c2ccccc12)C(=O)N[C@@H](Cc1c[nH]c2ccccc12)C(=O)N[C@H](C(=O)N[C@@H](CCCCN)C(=O)N[C@@H](Cc1c[nH]c2ccccc12)C(=O)N[C@@H](CCCCN)C(=O)N[C@@H](CCCCN)C(=O)O)[C@@H](C)O` [KKTWWKTWWTKWKK]: the MIC was 2 µM (≈ 4.04 µg/mL) in experiment [4]; 2 µM (≈ 4.04 µg/mL) in experiment [5]; 2 µM (≈ 4.04 µg/mL) in experiment [6]; 4 µM (≈ 8.09 µg/mL) in experiment [7]; 2 µM (≈ 4.04 µg/mL) in experiment [8]; 2 µM (≈ 4.04 µg/mL) in experiment [9].

The molecule `NCCCC[C@H](NC(=O)[C@H](Cc1c[nH]c2ccccc12)NC(=O)[C@@H]1CCCN1)C(=O)N[C@@H](Cc1c[nH]c2ccccc12)C(=O)N1CCC[C@H]1C(=O)N[C@@H](Cc1c[nH]c2ccccc12)C(=O)N[C@@H](Cc1c[nH]c2ccccc12)C(=O)N1CCC[C@H]1C(=O)N[C@@H](Cc1c[nH]c2ccccc12)C(=O)N[C@@H](CCCN=C(N)N)C(=O)N[C@@H](CCCN=C(N)N)C(N)=O` [PWKWPWWPWRR] registered an MIC in [3] of 0.8 µM (≈ 1.34 µg/mL).

With `CC[C@H](C)[C@H](NC(=O)[C@H](CCCCN)NC(=O)[C@H](CCCCN)NC(=O)[C@H](CC(C)C)NC(=O)[C@H](CCCN=C(N)N)NC(=O)[C@H](CCCCN)NC(=O)[C@H](CCCN=C(N)N)NC(=O)[C@@H](NC(=O)[C@H](Cc1c[nH]c2ccccc12)NC(=O)[C@H](Cc1c[nH]c2ccccc12)NC(=O)[C@H](CCCN=C(N)N)NC(=O)[C@H](CC(C)C)NC(=O)[C@H](CCCN=C(N)N)NC(=O)[C@H](CCCN=C(N)N)NC(=O)[C@H](Cc1ccccc1)NC(=O)[C@@H](N)CCCN=C(N)N)[C@@H](C)O)C(N)=O` [RFRRLRWWTRKRLKKI], the MIC amounted to 8 µM (≈ 18.4 µg/mL) in experiment [12], 8 µM (≈ 18.4 µg/mL) in the experiment on Escherichia coli UB1005, 4 µM (≈ 9.2 µg/mL) in experiment [13] and 8 µM (≈ 18.4 µg/mL) in experiment [14].

Turning to `CC[C@H](C)[C@H](NC(=O)[C@H](CCCN=C(N)N)NC(=O)[C@H](CC(C)C)NC(=O)[C@H](CC(C)C)NC(=O)[C@@H](N)CCCN=C(N)N)C(=O)N[C@H](C(=O)N[C@H](C(=O)N[C@H](C(=O)N[C@@H](CCCN=C(N)N)C(=O)N[C@H](C(=O)N[C@@H](CC(C)C)C(=O)N[C@@H](CCCN=C(N)N)C(N)=O)C(C)C)[C@@H](C)CC)C(C)C)C(C)C` [RLLRIVVIRVLR], the minimum inhibitory concentration (MIC) in [4] came to 16.6 µM (≈ 25 µg/mL); in [5] it was 8.3 µM (≈ 12.5 µg/mL); in experiment [6], 8.3 µM (≈ 12.5 µg/mL); in experiment [7], 4.15 µM (≈ 6.25 µg/mL); in [8], 8.3 µM (≈ 12.5 µg/mL); in experiment [9], 4.15 µM (≈ 6.25 µg/mL).

In the case of `NC(=O)[C@H](CCCN=C(N)N)NC(=O)[C@H](Cc1c[nH]c2ccccc12)NC(=O)[C@@H](N)CCCN=C(N)N` [RWR], the MIC in experiment [4], in experiment [6], in experiment [7] and in experiment [8] was no less than 124 µM in each case.
